Results published in paper PMC10989020, “Preclinical characterization of a non-peptidomimetic HIV protease inhibitor with improved metabolic stability” (Antimicrobial Agents and Chemotherapy, 2024).
Read-outs that look alike come from different tables or passages of the source.

Columns and labels:
two HIV-2 isolates = assay: Antiviral assay in PBMCs with HIV-2 clinical isolates (RT endpoint); assay type: cell-based; details: Human immunodeficiency virus 2, PBMC, 168 h, 7-day, RT activity
Experimental: Antiviral assays using fresh human PBMCs independently infected with a panel of clinical HIV-1 and HIV-2 isolates were performed by Southern Research as a contracted research study and assessed 7 days post-infection using reverse transcriptase (RT) endpoint assay. Antiviral assays using HIV-1 reporter viruses containing patient-derived sequences encoding all of PR and a portion of RT (amino acids 1–313) and conferring resistance to FDA-approved HIV PIs were performed by Monogram Biosciences Inc. (South San Francisco, CA) using their previously described Phenosense assay ([25]).

[1] = Cytotoxicity in CD4+ T-lymphocytes; assay type: cell-based; details: human, uninfected (mock infected) primary CD4+ T lymphocytes
Experimental: (§1) Compound cytotoxicity assessment in MT-4 cells, primary CD4+ T lymphocytes, and MDMs was carried out using a protocol identical to the antiviral assay except uninfected cells were used and tested with higher concentration ranges of test compounds. Assessment of cytotoxicity in additional human cell lines (Gal-PC3, Gal-HepG2, HEp-2, Huh-7, MRC-5, HepG2-NTCP, Huh7-Lunet HCV 1b and 2a replicons, NHBE, A549-hACE2) and primary human PBMCs (resting and stimulated with PHA/IL-2) and hepatocytes have been described previously ([19]). For all cytotoxicity assays, the CC50 value for puromycin was determined as a positive internal control and to assess assay sensitivity in each cell type. The effect of tested compounds on cell viability was measured using a CellTiter-Glo readout, performed according to the manufacturer’s recommendations.

[2] = Cytotoxicity in stimulated PBMCs; assay type: cell-based; details: human
Experimental: as §1

SARS-CoV-2 = assay: SARS-CoV2-Nluc reporter antiviral assay; details: Severe acute respiratory syndrome coronavirus 2
Experimental: (§4) The hepatitis B virus (HBV) surface antigen (HBsAg) antiviral assay was performed as previously described ([28]) using ND-654 as a positive control. The respiratory syncytial virus (RSV) A2 HEp-2 antiviral assay was performed as previously described ([29]) using YM-53403 as a positive control. The severe acute respiratory syndrome coronavirus 2 (SARS-CoV-2) antiviral assay was performed as described previously ([30]) using remdesivir as a positive control.

[3] = Cytotoxicity across human cell types (summary ranges); assay type: cell-based; details: read-out: mean CC50 range
Experimental: as §1

[4] = In vivo pharmacokinetics in rat; set-up: species or system Sprague-Dawley rat
Experimental: (§2) Preclinical pharmacokinetic studies were performed in male Sprague–Dawley rats, beagle dogs, and cynomolgus monkeys (three animals per dosing group in each species) following federal and Institutional Animal Care and Use Committee (IACUC) guidelines as described previously ([32]). […] The oral fraction absorbed (F%) was calculated using the formula:
(§3) %F=( PO Dose AUC0−inf) x (IV Dose)/(IV Dose AUC0−inf) x (PO Dose)×100%

[5] = Cytotoxicity in uninfected MT-4 cells; assay type: cell-based, human; details: human, uninfected (mock infected) MT-4 T cells, MT-4 T cell line
Experimental: as §1

[6] = Metabolic stability of radiolabeled GS-9770 in human liver microsomes; assay type: in vitro ADME; details: radiolabeled GS-9770, human liver microsomes
Cytotoxicity in MRC-5 = assay type: cell-based; details: human, MRC-5 cells
Experimental: as §1

Cytotoxicity in NHBE = assay type: cell-based; details: human, NHBE cells
Experimental: as §1

[7] = Cytotoxicity in Gal-HepG2; assay type: cell-based; details: human, Gal-HepG2 cells
Experimental: as §1

[8] = human
[9] = Cytotoxicity in monocyte-derived macrophages; assay type: cell-based; details: human, uninfected (mock infected) monocyte-derived macrophages
Experimental: as §1

in vitro [10] = assay type: cell-based; details: human
Experimental: as §1

[11] = system: panel of 49 patient-derived HIV-1 reporter viruses with PI resistance-associated substitutions; assay type: cell-based
[12] = In vivo pharmacokinetics in monkey; details: cynomolgus monkey
Experimental: as §2, §3

HCV-2a = assay: microbe, parasite or virus in culture; details: Hepatitis C virus, Huh-7
[13] = Predicted clearance from cynomolgus monkey liver microsome fractions; assay type: in vitro ADME
[14] = Cytotoxicity in cell lines of the non-HIV virus panel (summary); assay type: cell-based; details: human, HepG2-NTCP, Huh7-Lunet replicon cells, NHBE, A549-ACE2, read-out: CC50 range in the corresponding cell lines
Experimental: as §1

Cytotoxicity in Gal-PC3 = assay type: cell-based; details: human, Gal-PC3 cells
Experimental: as §1

[15] = system: HIV-1LAI wild type and site-directed PR mutants; assay: microbe, parasite or virus in culture; assay type: cell-based
[16] = Cytotoxicity in HepG2-NTCP; assay type: cell-based; details: human, HepG2-NTCP cells
Experimental: as §1

HIV-1 IIIb [17] = assay: 5-day cytoprotection antiviral assay in MT-4 cells; assay type: cell-based
Cytotoxicity in HEp-2 = assay type: cell-based; details: human, HEp-2 cells
Experimental: as §1

HCV-1b = assay: microbe, parasite or virus in culture; details: Hepatitis C virus, Huh-7
in vitro [18] = assay type: cell-based; details: human; remark: listed apart in the source
Experimental: as §1

HBV = assay: microbe, parasite or virus in culture; details: Hepatitis B virus
Experimental: as §4

HIV-1 IIIb [19] = assay: Dose-escalation resistance selection in MT-2 cells; assay type: cell-based
HIV-1IIIb = assay: Antiviral activity in MT-2/HIV-1IIIb cultures; assay type: cell-based; details: Human immunodeficiency virus 1

## CC(C)(CC1(c2ccc(-c3cnn(C4CC4)n3)cc2)NC(=N)N(C(COC(=O)NC2(C(F)F)CC2)c2ccc(Cl)c(-c3ncnn3C(F)F)c2)C1=O)C(F)(F)F (stereo not shown) [GS-9770]
Two HIV-2 isolates
  EC50: 0.026 µM
[1]
  CC50: 9 ± 0.4 µM
[2]
  CC50: 9.1 ± 0.6 µM
SARS-CoV-2
  EC50: 5.3 ± 1.9 µM
[3]; Gal-HepG2 and MRC-5 cells, five human cell lines (Gal-PC3, HEp-2, Huh7, Gal-HepG2, MRC-5)
  CC50: 13 to 20 µM
[3]; human, human cell lines and primary cells (15 cell types), across 15 different cell types
  CC50: 4.7 to 34 µM
[3]; primary human hepatocytes and PBMCs (stimulated and unstimulated)
  CC50: 9.1 to 34 µM
[4]; 1 mg/kg IV and 5 mg/kg PO
  F% (oral bioavailability): 45.9 ± 9.8%
[4]; 1 mg/kg IV, 4–5 mg/kg PO
  tolerability at the doses tested: well tolerated
[4]; male, Sprague-Dawley, plasma, 1 mg/kg IV
  clearance: 3.5 mL/min/kg
[4]; male, Sprague-Dawley, plasma, 1 mg/kg IV and 5 mg/kg PO, read-out: Terminal t1/2 (converted)
  half-life: 10.6 ± 1.4 h
[4]; male, Sprague-Dawley, plasma, 1 mg/kg IV, read-out: Vss
  Vd: 2.7 ± 0.3 L/kg
[4]; male, Sprague-Dawley, plasma, oral, 5 mg/kg, 1 mg/kg IV and 5 mg/kg PO, read-out: F% (oral bioavailability)
  bioavailability: 49%
[5]
  CC50: 6.6 ± 1.3 µM
[6]
  predicted human plasma clearance: 1.5 mL/min/kg
Cytotoxicity in MRC-5
  CC50: 20 ± 6 µM
Cytotoxicity in NHBE
  CC50: 4.7 ± 1.7 µM
[7]
  CC50: 13 ± 6 µM
[8]
  predicted plasma half-life in humans: ~ 18.5 hours
[9]
  CC50: 16 ± 3 µM
In vitro [10]
  CC50: 15.1 ± 2.1 µM
[11]; virus 8, virus 11 and virus 42
  loss in susceptibility: 3 fold
[11]; virus 13 (L10I, M46I, G48V, I50V, V82A, L90M)
  mutant vs wild-type HIV EC50 FC: 21 fold
[11]; virus 29 (L10F/L, D30N, I54V, N88D, L90M)
  mutant vs wild-type HIV EC50 FC: 12 fold
[11]; virus 43 (L10I, M46L, I54V, V82A)
  mutant vs wild-type HIV EC50 FC: 11 fold
[12]; 1 mg/kg IV, 4–5 mg/kg PO
  tolerability at the doses tested: well tolerated
[12]; plasma, 1 mg/kg IV
  clearance: 5.67 mL/min/kg
[12]; plasma, 1 mg/kg IV and 4 mg/kg PO, read-out: F% (oral bioavailability)
  bioavailability: 100 ± 34%
[12]; plasma, 1 mg/kg IV and 4 mg/kg PO, read-out: Terminal t1/2 (converted)
  half-life: 7.4 ± 0.2 h
[12]; plasma, 1 mg/kg IV, read-out: Vss
  Vd: 2.6 ± 0.8 L/kg
HCV-2a
  EC50: 10.4 ± 0.3 µM
[13]
  in vitro predicted blood CL: 2.5 mL/min/kg
[14]
  CC50: 4.7 to 15.1 µM
Cytotoxicity in Gal-PC3
  CC50: 15 ± 4 µM
[15]; Human immunodeficiency virus 1, PR L24I M46L A77I V82A
  EC50: 0.0059 ± 0.0032 µM
[15]; Human immunodeficiency virus 1, PR L24I M46L I64V A77I V82A
  EC50: 0.0224 ± 0.0073 µM
[15]; Human immunodeficiency virus 1, PR M46L A77I V82A
  EC50: 0.0083 ± 0.0018 µM
[15]; Human immunodeficiency virus 1, PR V82A
  EC50: 0.0082 ± 0.0032 µM
[15]; Human immunodeficiency virus 1, Wild type (WT) HIV-1LAI
  EC50: 0.0031 ± 0.0016 µM
[16]
  CC50: 8.4 ± 2 µM
HIV-1 IIIb [17]; Human immunodeficiency virus 1, IIIB, T-cell, 120 h
  EC50: 0.011 ± 0.002 µM
HIV-1 IIIb [17]; calculated from MT-4/HIV-1IIIb EC50 and Hill coefficient
  95% effective concentration (EC95): 0.0216 µM
Cytotoxicity in HEp-2
  CC50: 17 ± 2 µM
HCV-1b
  EC50: 10.8 ± 0.5 µM
In vitro [18]
  CC50: 15.1 ± 3 µM
HBV
  EC50: 11 ± 4 µM
HIV-1 IIIb [19]; variant L24I M46L A77I V82A
  GS-9770 concentration at variant first emergence: 100 nM
HIV-1 IIIb [19]; variant M46L A77I V82A
  GS-9770 concentration at variant first emergence: 100 nM
HIV-1IIIb
  EC50: 0.004 µM
